Laboratory results from patent US20120302573A1, “METHODS OF INHIBITING PRO MATRIX METALLOPROTEINASE ACTIVATION” (priority 2011, published 2012).
Several values for one entry are separate records, joined by “and”; a condition that tells them apart may be missing. Equal values may be shown once.

Tests used:
[1] = target: T1, MMP9 (Rattus norvegicus, UniProt P50282); experiment: Western blot of MMP9 forms in ankles of rats with SCW-induced arthritis; type: in vivo; details: day 26, mAb-L51/82
T1 construct: Pro and active MMP9 were abundantly present in ankles of SCW-induced vehicle-treated rats; from tissue; host or cells: tibia-tarsus joints (ankles) of female Lewis rats
Method: Hind-limbs were skinned, severed just above the tibia-tarsus joint and below the metatarsals, and the tibia-tarsus joints (ankles) were weighed, snap frozen and pulverized on dry ice using a hammer and anvil. The pulverized tissue was suspended in 3 volumes (w:v) of ice-cold homogenization buffer containing 50 mM Tris pH 7.5, 150 mM NaCl, 5 mM EDTA, 1% Triton×100, 0.05% Brij 30, 10% dimethylsulfoxide and Complete EDTA-free Protease Inhibitor Cocktail (Roche Diagnostics). The suspended tissue was homogenized sequentially with a Kinematica AG Polytron and a Dounce homogenizer. Homogenates were centrifuged at 16,000×g for 10 min at 4° C. and the soluble fractions were saved. Dimethylsulfoxide was removed from a portion of each soluble fraction using PD MiniTrap™ G-25 desalting columns (GE Healthcare). Homogenates (0.25 mL), free of DMSO, were diluted with an equal volume of binding buffer (i.e., homogenization buffer without dimethylsufoxide) and adjusted to contain 50 μL of a 50% slurry of gelatin-conjugated sepharose. Following 2 hours of rotation at 4° C. the beads were washed twice in binding buffer and eluted in 100 μL 2×-reducing Laemmli buffer with heating to 95° C. for 5 minutes. […]

[2] = target: T2, MMP9 mediated gelatinase activity (Rattus norvegicus, UniProt P50282); experiment: In situ zymography of gelatinase activity in livers of SCW-induced rats dosed with compound; type: in vivo; details: for Liver gelatinase Intensity, Mean / Liver gelatinase Intensity, individual rats: Day 25-28
T2 construct: from tissue; host or cells: liver cryosections of female Lewis rats
Description: In situ zymography provides an alternative approach to assess active MMP9 in tissues (J Histochem Cytochem; 2004; 52:711-722). Tissue sections are overlain with fluorescein-conjugated gelatin wherein the conjugation is sufficiently dense to cause the fluorescein to be dye-quenched (DQ). Proteolytic degradation of the DQ-gelatin releases the fluorescein from the quenching effect giving rise to bright green fluorescence at the site of degradation. Because in situ zymography requires the use of frozen sections, calcified tissues are problematic. However, an additional feature of the SCW arthritis model is the development of hepatic granulomatous disease (J Immunol; 1986; 137:2199-2209), and MMP9 reportedly plays a role in macrophage recruitment in the granulomas response to mycobacteria (Infect Immun; 2006; 74:6135-6144). Consequently, granulomatous livers from SCW-treated rats were assessed for active MMP9 by in situ zymography.
As described above, Female Lewis (LEW/N) rats, 5-6 weeks of age (80-100 g) were injected (i.p.) with saline or SCW PG-PS. On day 28, when the granulomatous response was well established, animals were sacrificed and livers were frozen in OCT cryo-sectioning medium and 10 μm sections were cut on a Cryome HM 500 M cryotome and mounted on glass microscope slides. Sections were air dried briefly. MMP9 was confirmed as the source of the gelatinase activity in the liver by treating liver sections with monoclonal antibodies directed against the active site of the two major gelatinases MMP9 and MMP2. Liver sections overlain with 50 μL of 100 μg/mL neutralizing mouse monoclonal antibodies directed against MMP9 (Calbiochem, clone 6-6B), or MMP2 (Millipore, clone CA-4001), or with PBS for 1 hr at room temperature. Tissues were rinsed once with PBS, blotted, and briefly air dried and then overlain with DQ-gelatin (Invitrogen) dissolved to 1 mg/mL in deionized water and then diluted 1:10 in 1% wt/vol low gelling point agarose type VII (Sigma) in PBS. The sections were covered with coverslips, incubated in the dark at room temperature for 20 min, and imaged on an Olympus IX80 inverted microscope fitted with fluorescence optics, using SlideBook™ imaging software (Intelligent Imaging Innovations, Inc., Philadelphia, Pa.; version 5.0). Fluorescence intensity was determined (Table 9). When compared to a saline-treated rat, gelatinase activity was abundantly expressed in granulomatous liver sections obtained from a rat with SCW arthritis.
Next, liver in situ zymography was used to assess the relative presence of active MMP9 in rats dosed with vehicle vs. Compound α. Female Lewis (LEW/N) rats, 5-6 weeks of age (80-100 g) were injected (i.p.) with saline or SCW PG-PS. Commencing on day 25, randomized groups of rats (n=3 rats/group) received vehicle or 20 or 50 mg/kg Compound α BID by oral gavage. Vehicle consisted of an aqueous mixture containing 2% (v:v) N-methylpyrrolidone, 5% (v:v) glycerine, and 20% (w:v) captisol. Treatment continued daily through the morning of day 28.
Four hrs after the AM dose on day 28, rats were sacrificed and livers assessed for active MMP9 by in situ zymography (Table 10). Gelatinase activity was increased markedly in SCW-induced rats, but activity was reduced by approximately 80% in animals treated with 50 mg/kg Compound α.

T2 sequence (P50282 108-708): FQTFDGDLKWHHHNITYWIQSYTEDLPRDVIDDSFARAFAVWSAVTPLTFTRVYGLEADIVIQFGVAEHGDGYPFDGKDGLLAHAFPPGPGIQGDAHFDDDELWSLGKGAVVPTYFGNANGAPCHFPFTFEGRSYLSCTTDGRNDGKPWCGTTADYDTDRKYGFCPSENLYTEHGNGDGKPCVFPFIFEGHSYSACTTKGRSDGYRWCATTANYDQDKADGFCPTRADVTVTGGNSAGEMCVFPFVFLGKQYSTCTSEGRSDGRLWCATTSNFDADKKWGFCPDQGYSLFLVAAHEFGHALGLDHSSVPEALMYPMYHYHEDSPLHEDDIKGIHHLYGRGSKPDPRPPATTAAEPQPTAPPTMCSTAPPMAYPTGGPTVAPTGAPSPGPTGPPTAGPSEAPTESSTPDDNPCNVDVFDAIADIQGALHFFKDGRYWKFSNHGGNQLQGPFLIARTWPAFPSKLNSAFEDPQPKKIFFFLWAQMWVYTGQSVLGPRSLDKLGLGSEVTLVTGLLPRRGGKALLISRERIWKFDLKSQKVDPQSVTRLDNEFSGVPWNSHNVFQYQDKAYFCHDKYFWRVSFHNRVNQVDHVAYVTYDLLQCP
T1 sequence (P50282 108-708): as above

Cc1nc(C)c(-c2csc(Nc3cc(S(N)(=O)=O)ccc3OC(C)C)n2)s1 [Compound α, 3-(2′,4′-Dimethyl-[4,5′]bithiazolyl-2-ylamino)-4-isopropoxy-benzenesulfonamide.HBr]
abundance of proMMP9 in ankles [1]: did not reduce
Liver gelatinase Intensity, Mean ([2]; 20 mg/kg BID oral): 55.2 RLU × 10^6
Liver gelatinase Intensity, individual rats ([2]; 20 mg/kg BID oral): 43.0 RLU × 10^6 and 69.0 RLU × 10^6 and 53.7 RLU × 10^6
Liver gelatinase Intensity, Mean ([2]; 50 mg/kg BID oral): 11.1 RLU × 10^6
Liver gelatinase Intensity, individual rats ([2]; 50 mg/kg BID oral): 3.2 RLU × 10^6 and 25.6 RLU × 10^6 and 4.5 RLU × 10^6
reduction of liver gelatinase activity ([2]; 50 mg/kg BID oral, day 28): approximately 80%
